Assays:
[1] = tested on: psoriasis and other inflammatory skin conditions; settings: small clinical trial; cited from earlier work
Kv1.3 channels = Kv1.3 channels (Mus musculus, UniProt P16390); assay: Kv1.3 blockade, manual whole-cell patch-clamp; type: cell-based; settings: for decrease in Kv1.3 blocking activity/potency relative to diphenoxylate: fold less potent than diphenoxylate
[2] = tested on: delayed type hypersensitivity (DTH) and allergic contact dermatitis (ACD); settings: Lewis rats; dosed orally, by i.p. injection or topically; cited from earlier work
[3] = cited from earlier work
[4] = tested on: adoptive transfer and chronic relapsing experimental autoimmune encephalomyelitis (EAE); settings: rats; cited from earlier work

Chain of Kv1.3 channels (P16390 whole entry): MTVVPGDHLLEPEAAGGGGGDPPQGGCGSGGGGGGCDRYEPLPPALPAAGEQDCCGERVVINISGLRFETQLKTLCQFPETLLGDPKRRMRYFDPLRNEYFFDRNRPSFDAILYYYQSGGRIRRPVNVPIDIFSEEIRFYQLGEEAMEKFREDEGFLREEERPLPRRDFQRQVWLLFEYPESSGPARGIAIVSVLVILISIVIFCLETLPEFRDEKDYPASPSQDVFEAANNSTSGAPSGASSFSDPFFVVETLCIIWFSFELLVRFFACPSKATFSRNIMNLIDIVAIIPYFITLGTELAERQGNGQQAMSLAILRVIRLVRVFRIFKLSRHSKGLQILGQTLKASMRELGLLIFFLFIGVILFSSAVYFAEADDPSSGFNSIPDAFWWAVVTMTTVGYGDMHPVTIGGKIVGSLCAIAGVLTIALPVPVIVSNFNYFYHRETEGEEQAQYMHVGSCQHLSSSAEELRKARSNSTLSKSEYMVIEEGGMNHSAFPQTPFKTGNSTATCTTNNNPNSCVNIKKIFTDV

CCOC(=O)C1(c2ccccc2)CCN(CCC(C#N)(c2ccccc2)c2ccccc2)CC1 [Compound 1, Diphenoxylate]
clinical effect on psoriasis and other inflammatory skin conditions [1]: successfully treat psoriasis and other inflammatory skin conditions

CCOC(=O)C1CCN(CCC(C#N)(c2ccccc2)c2ccccc2)CC1 [Compound 6, Ethyl 1-(3-cyano-3,3-diphenylpropyl)piperidine-4-carboxylate]
decrease in Kv1.3 blocking activity/potency relative to diphenoxylate (Kv1.3 channels): ~ 50 fold

CCOC(=O)C1(c2ccccc2)CCN(CCC(c2ccccc2)c2ccccc2)CC1 [Compound 7, Ethyl 1-(3,3-diphenylpropyl)-4-phenylpiperidine-4-carboxylate]
more active than diphenoxylate (Kv1.3 blockade) (Kv1.3 channels; fold more active than diphenoxylate): 6 fold

N#CC(CCN1CCCCC1)(c1ccccc1)c1ccccc1 [Compound 8, 2,2-diphenyl-4-(piperidin-1-yl)butanenitrile]
decrease in Kv1.3 blocking activity/potency relative to diphenoxylate (Kv1.3 channels): 4 fold

N#CC(CCN1CCCC(O)C1)(c1ccccc1)c1ccccc1 (stereo not shown) [Compound 15, 4-(3-hydroxypiperidin-1-yl)-2,2-diphenylbutanenitrile]
IC50 (Kv1.3 channels): > 100 µM

OC1CCN(CCCc2ccccc2)CC1 [Compound 17, 1-(3-phenylpropyl)piperidin-4-ol]
IC50 (Kv1.3 channels): > 100 µM
Kv1.3 blocking activity (in words) (Kv1.3 channels; removal of a cyano group plus a phenyl ring from 14): no activity

O=c1ccc2c(OCCCCOc3ccccc3)c3ccoc3cc2o1 [PAP-1]
effect on DTH and ACD [2]: suppress delayed type hypersensitivity (DTH) and allergic contact dermatitis (ACD)
oral availability [3]: 25%

ShK
effect on EAE [4]: able to treat both adoptive transfer and chronic relapsing experimental autoimmune encephalomyelitis (EAE)
